Reference: ChEMBL document CHEMBL1201862, “PubChem BioAssay data set” (2004)
Blank lines part the entries; values can stand above or below the molecule they belong to. The source made the active and inactive calls.

Columns and labels:
[1] = molecular target: T1, G-protein coupled receptor 35 (Homo sapiens, UniProt Q9HC97); experiment: SAR analysis of Antagonists of the GPR35 Receptor using an Image-Based Assay - Set 6. [Related pubchem assays (depositor defined):AID2013, AID2026]; assay type: functional
Cannabinoid receptor 2 [2] = molecular target: T2, Cannabinoid receptor 2 (Homo sapiens, UniProt P34972); experiment: SAR analysis of agonists of the Cannabinoid Receptor 2 using an Image-Based Assay - Set 3. [Related pubchem assays (depositor defined):AID2013, AID2026]; assay type: functional
[3] = molecular target: G-protein coupled receptor 55 (Homo sapiens, UniProt Q9Y2T6); experiment: SAR Analysis of Selective Antagonists of GPR55 using an Image-Based Assay - Set 4. [Related pubchem assays (depositor defined):AID2013, AID2026]; assay type: functional;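 further: antagonism of response to 5 µM lysophosphatidylinositol agonist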
Cannabinoid receptor 2 [4] = molecular target: T2, Cannabinoid receptor 2; experiment: SAR analysis of antagonists of the Cannabinoid Receptor 2 using an Image-Based Assay - Set 3. [Related pubchem assays (depositor defined):AID2013, AID2026]; assay type: functional
Cannabinoid receptor 1 [5] = molecular target: T3, Cannabinoid receptor 1 (Homo sapiens, UniProt P21554); experiment: SAR analysis of antagonists of the Cannabinoid Receptor 1 using an Image-Based Assay - Set 4. [Related pubchem assays (depositor defined):AID2013, AID2026]; assay type: functional
[6] = molecular target: T1, G-protein coupled receptor 35; experiment: SAR analysis of Agonists of the GPR35 Receptor using an Image-Based Assay - Set 4. [Related pubchem assays (depositor defined):AID2013, AID2026]; assay type: functional
Cannabinoid receptor 1 [7] = molecular target: T3, Cannabinoid receptor 1; experiment: SAR analysis of agonists of the Cannabinoid Receptor 1 using an Image-Based Assay - Set 4. [Related pubchem assays (depositor defined):AID2013, AID2026]; assay type: functional
[8] = molecular target: T4, Type-1 angiotensin II receptor (Homo sapiens, UniProt P30556); experiment: AT1 receptor agonists, dose response, selectivity assay for APJ receptor agonist project, cell-based, uHTS hits (AID 488865); assay type: functional;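 further: beta-arrestin recruitment to AT1 measured by enzyme fragment complementation luminescence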
T4 sequence (P30556 whole entry): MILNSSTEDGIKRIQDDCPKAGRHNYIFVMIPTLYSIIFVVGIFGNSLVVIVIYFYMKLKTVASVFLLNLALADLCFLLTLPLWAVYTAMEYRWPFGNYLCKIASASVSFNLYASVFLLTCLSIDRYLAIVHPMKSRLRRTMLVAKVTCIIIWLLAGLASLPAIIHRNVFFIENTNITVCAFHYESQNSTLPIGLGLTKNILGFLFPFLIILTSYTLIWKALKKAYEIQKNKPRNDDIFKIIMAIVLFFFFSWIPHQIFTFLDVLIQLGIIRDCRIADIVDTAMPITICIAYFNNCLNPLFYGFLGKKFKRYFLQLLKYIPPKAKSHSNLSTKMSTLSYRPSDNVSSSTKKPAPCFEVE

Mu-type opioid receptor = Mu-type opioid receptor (Homo sapiens, UniProt P35372); experiment: SAR Analysis of Agonists of the MOR Receptor using an Image-Based Assay - Set 3. [Related pubchem assays (depositor defined):AID1777, AID1785, AID1786, AID1966, AID2133, AID2136, AID2284, AID2285, AID2352]; assay type: functional
[9] = molecular target: Delta-type opioid receptor (Homo sapiens, UniProt P41143); experiment: SAR Analysis of Agonists of the DOR Receptor using an Image-Based Assay - Set 3. [Related pubchem assays (depositor defined):AID1777, AID1786]; assay type: functional
[10] = inhibitors of intracellular T. cruzi replication, confirmation, NIH3T3 host cells, beta-gal luminescence (AID 2044); assay type: functional, cell-based;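 further: intracellular parasites grown in NIH/3T3 mouse fibroblasts as host cells; luminescent beta-galactosidase reporter signal from transgenic T. cruzi replicating inside host cells; inhibitors lower the luminescence signal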
[11] = cytotoxicity toward NIH3T3 fibroblasts, dose response, counter-screen, cell-based, ATP luminescence, mouse fibroblasts (AID 2010); assay type: functional;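 further: cells exposed to compound for about 90 hours before reading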
[12] = molecular target: Sphingosine 1-phosphate receptor 1 (Homo sapiens, UniProt P21453); experiment: Fluorescence-based counterscreen assay for S1P4 agonists: Cell-based dose response high throughput screening assay to identify agonists of the Sphingosine 1-Phosphate Receptor 1 (S1P1). [Related pubchem assays (depositor defined):AID1509, AID1523, AID1801, AID463107, AID463118, AID463119, AID463122, AID463123, AID463129, AID463225, AID504400, AID504460]; assay type: functional
[13] = molecular target: T5, Sphingosine 1-phosphate receptor 4 (Homo sapiens, UniProt O95977); experiment: Fluorescence dose response cell-based high throughput screening assay for agonists of the Sphingosine 1-Phosphate Receptor 4 (S1P4). [Related pubchem assays: 1509 (Primary screen.), 1523 (Confirmation screen in triplicates.)]; assay type: functional
T5 sequence (O95977 whole entry): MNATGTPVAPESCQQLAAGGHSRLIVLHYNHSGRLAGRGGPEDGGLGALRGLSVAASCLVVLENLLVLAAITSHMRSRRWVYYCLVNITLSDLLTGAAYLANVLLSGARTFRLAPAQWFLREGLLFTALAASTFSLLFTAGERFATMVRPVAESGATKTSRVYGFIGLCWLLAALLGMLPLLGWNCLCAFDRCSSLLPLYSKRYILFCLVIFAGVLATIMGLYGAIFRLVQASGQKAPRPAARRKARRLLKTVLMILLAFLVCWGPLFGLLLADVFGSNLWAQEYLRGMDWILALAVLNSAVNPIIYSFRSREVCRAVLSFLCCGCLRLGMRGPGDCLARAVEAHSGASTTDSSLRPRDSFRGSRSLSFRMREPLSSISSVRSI

INS1 = experiment: beta cell apoptosis inhibitors, cytokine rescue, dose response, luminescence, retest (AID 449756); assay type: functional, cell-based; settings: Rattus norvegicus;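 further: cell death triggered by IL-1 beta plus TNF-alpha plus IFN-gamma mixture; protective hits raise ATP signal compared with cytokine alone wells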
[14] = growth suppression of PTEN-null colon cells, dose response, cell-based, HCT116 PTEN knockout (AID 1047); assay type: functional;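 further: HCT116 colon tumor cells with PTEN knocked out; cells exposed to compound for 60 hours before readout; potency for loss of cell viability measured by luminescence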
SUMO-activating enzyme = SUMO-activating enzyme (Homo sapiens, UniProt Q9UBT2); experiment: SUMOylation inhibitor hit validation, confirmation, SUMOylation inhibitor project, biochemical, AlphaScreen (AID 2018); assay type: functional
[15] = growth suppression of beta-catenin-knockout colon cells, dose response, cell-based, HCT116, human colon tumor (AID 1045); assay type: functional;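 further: HCT116 colon tumor cells with beta catenin knocked out; cells exposed to compound for 60 hours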
[16] = molecular target: T6, Runt-related transcription factor 1/Core-binding factor subunit beta (Homo sapiens, UniProt Q01196+Q13951); experiment: inhibitors of RUNX1 Runt–CBFb-SMMHC binding, biochemical, TR-FRET (AID 1438); assay type: protein assay
[17] = molecular target: T6, Runt-related transcription factor 1/Core-binding factor subunit beta; experiment: inhibitors of RUNX1 Runt–CBFb-SMMHC binding, primary screen, biochemical, FRET, Cerulean-Runt, Venus-CBFb-SMMHC, uHTS (AID 1434); assay type: protein assay;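 further: partner is the CBFb-SMMHC leukemia fusion protein rather than wild-type CBFb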
[18] = molecular target: Signal transducer and activator of transcription 1-alpha/beta (Homo sapiens, UniProt P42224); experiment: STAT3 inhibitors, late-stage profile, late-stage follow-up, cell-based, STAT1 panel, qPCR, cytotoxicity, panel member STAT1 Inhibition (AID 2078)
[19] = molecular target: Signal transducer and activator of transcription 3 (Homo sapiens, UniProt P40763); experiment: STAT3 inhibitors, late-stage profile, late-stage follow-up, cell-based, STAT1 panel, qPCR, cytotoxicity, panel member STAT3 Inhibition (AID 2078)
[20] = molecular target: T7, E3 ubiquitin-protein ligase XIAP (Homo sapiens, UniProt P98170); experiment: Counter Screen using XIAP-Bir3 for Chemical Antagonists of Bir1/2 domains of IAP-family anti-apoptotic proteins. [Related pubchem assays (depositor defined):AID1018, AID1449, AID1514, AID1638, AID1749, AID1750, AID488957, AID488963]
[21] = molecular target: T7, E3 ubiquitin-protein ligase XIAP; experiment: XIAP antagonists, biochemical, IAP family, fluorescence polarization (AID 1018); assay type: functional
[22] = molecular target: Intestinal-type alkaline phosphatase (Homo sapiens, UniProt P09923); experiment: activation of human intestinal alkaline phosphatase – biochemical, dose response (AID 488873); assay type: functional
[23] = molecular target: T8, Alkaline phosphatase, tissue-nonspecific isozyme (Homo sapiens, UniProt P05186); experiment: TNAP enzyme activators, dose response, selectivity assay for mouse IAP activator project, biochemical, TNAP isozyme, mouse IAP uHTS hits (AID 488880); assay type: functional
T8 sequence (P05186 whole entry): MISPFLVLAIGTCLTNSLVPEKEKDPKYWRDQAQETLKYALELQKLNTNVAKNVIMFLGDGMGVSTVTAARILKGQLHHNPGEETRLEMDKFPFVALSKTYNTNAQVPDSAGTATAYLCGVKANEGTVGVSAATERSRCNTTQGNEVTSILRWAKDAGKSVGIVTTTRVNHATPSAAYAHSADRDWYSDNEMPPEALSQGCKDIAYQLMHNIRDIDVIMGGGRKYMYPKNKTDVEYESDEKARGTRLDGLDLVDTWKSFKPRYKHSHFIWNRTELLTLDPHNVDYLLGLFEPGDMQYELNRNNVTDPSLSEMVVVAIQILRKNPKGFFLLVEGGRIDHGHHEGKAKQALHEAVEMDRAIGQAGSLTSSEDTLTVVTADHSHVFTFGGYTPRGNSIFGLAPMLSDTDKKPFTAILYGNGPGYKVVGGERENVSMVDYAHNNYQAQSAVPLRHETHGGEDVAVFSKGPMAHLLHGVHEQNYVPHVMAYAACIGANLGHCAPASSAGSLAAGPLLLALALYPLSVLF

[24] = molecular target: Intestinal-type alkaline phosphatase (Mus musculus, UniProt P24822); experiment: mouse intestinal alkaline phosphatase activators, dose response, biochemical, luminescence, uHTS hits (AID 488783); assay type: functional

T2 sequence (P34972 whole entry): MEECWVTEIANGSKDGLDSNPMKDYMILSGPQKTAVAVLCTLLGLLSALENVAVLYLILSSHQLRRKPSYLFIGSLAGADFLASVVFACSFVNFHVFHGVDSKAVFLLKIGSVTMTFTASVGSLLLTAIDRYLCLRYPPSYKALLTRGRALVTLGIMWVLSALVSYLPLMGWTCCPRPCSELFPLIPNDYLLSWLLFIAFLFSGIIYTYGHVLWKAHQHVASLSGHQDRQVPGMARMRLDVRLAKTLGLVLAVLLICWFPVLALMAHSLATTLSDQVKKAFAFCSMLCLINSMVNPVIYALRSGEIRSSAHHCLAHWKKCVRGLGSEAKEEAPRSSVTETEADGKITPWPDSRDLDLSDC
T3 sequence (P21554 whole entry): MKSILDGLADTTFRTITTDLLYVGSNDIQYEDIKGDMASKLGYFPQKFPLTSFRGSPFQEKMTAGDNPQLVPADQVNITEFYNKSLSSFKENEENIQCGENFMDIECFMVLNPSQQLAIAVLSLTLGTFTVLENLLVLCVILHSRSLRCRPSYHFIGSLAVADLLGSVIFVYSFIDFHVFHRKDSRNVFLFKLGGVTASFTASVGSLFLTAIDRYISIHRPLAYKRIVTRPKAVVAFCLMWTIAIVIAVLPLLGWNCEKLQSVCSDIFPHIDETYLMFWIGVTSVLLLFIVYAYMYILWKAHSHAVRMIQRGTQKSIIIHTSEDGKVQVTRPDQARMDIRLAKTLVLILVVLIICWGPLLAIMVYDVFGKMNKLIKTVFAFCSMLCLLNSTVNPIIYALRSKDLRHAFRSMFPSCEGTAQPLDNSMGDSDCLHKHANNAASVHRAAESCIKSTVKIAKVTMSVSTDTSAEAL
T1 sequence (Q9HC97 whole entry): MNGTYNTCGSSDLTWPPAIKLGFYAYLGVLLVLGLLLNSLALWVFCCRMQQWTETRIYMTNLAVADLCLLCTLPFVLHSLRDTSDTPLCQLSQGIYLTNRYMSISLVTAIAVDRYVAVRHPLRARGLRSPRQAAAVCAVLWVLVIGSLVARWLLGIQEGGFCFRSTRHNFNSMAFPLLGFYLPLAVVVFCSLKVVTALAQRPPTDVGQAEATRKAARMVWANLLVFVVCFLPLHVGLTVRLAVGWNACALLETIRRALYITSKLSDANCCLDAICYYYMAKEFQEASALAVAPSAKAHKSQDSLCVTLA
T7 sequence (P98170 whole entry): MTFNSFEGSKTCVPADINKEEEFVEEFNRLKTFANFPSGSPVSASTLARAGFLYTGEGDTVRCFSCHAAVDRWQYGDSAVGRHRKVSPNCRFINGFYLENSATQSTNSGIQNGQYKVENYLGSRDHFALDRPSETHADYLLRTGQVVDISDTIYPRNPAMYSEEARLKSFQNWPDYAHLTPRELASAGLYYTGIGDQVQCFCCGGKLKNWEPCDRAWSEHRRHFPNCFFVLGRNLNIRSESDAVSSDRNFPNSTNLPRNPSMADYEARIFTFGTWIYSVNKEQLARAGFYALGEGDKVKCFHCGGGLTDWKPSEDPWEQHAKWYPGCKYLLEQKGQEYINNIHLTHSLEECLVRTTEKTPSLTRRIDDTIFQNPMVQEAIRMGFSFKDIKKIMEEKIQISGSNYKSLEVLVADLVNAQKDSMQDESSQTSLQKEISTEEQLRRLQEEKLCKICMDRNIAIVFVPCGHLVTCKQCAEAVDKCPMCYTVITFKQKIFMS
T6 sequence (Q01196 whole entry, the tested form may be a part): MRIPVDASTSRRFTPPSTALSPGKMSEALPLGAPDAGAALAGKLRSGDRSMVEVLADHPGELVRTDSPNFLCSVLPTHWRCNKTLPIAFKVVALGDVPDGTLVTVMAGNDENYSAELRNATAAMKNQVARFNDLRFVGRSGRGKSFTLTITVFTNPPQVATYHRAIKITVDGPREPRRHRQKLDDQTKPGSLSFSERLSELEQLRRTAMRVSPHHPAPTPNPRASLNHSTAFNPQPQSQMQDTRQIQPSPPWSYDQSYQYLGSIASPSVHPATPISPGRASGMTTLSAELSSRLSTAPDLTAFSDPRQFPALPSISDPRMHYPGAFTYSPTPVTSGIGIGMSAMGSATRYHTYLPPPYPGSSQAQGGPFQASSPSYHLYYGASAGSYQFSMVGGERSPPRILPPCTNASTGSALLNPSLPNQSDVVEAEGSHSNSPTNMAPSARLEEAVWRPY
T6 sequence (Q13951 whole entry, the tested form may be a part): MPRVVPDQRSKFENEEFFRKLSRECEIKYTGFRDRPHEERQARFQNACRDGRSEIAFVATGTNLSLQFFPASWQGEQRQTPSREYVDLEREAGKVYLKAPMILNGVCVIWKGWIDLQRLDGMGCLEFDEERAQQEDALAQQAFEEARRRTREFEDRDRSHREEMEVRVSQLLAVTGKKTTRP
Chain of Sphingosine 1-phosphate receptor 1 (P21453 whole entry): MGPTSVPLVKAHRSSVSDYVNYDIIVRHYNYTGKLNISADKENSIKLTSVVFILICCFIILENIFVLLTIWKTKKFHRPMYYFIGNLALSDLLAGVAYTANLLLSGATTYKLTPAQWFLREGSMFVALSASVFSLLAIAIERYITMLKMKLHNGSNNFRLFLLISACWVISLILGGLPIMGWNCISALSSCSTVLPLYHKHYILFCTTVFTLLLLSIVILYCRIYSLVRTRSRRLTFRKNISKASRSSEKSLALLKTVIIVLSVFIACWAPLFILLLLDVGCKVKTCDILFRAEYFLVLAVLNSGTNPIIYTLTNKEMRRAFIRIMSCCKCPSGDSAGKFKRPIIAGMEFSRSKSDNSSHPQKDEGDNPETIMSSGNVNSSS
Chain of Mu-type opioid receptor (P35372 whole entry): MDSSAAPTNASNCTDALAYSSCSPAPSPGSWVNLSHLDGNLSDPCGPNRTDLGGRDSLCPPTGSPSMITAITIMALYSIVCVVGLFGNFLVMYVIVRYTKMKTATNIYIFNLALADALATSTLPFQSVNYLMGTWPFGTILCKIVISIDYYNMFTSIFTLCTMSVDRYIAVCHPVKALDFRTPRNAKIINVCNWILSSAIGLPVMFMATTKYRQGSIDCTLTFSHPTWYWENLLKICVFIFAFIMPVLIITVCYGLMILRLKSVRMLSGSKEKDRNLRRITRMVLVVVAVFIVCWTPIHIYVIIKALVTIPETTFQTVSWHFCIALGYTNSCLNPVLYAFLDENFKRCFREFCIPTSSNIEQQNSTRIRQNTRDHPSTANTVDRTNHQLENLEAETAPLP
Chain of Intestinal-type alkaline phosphatase (Homo sapiens, UniProt P09923) (P09923 whole entry): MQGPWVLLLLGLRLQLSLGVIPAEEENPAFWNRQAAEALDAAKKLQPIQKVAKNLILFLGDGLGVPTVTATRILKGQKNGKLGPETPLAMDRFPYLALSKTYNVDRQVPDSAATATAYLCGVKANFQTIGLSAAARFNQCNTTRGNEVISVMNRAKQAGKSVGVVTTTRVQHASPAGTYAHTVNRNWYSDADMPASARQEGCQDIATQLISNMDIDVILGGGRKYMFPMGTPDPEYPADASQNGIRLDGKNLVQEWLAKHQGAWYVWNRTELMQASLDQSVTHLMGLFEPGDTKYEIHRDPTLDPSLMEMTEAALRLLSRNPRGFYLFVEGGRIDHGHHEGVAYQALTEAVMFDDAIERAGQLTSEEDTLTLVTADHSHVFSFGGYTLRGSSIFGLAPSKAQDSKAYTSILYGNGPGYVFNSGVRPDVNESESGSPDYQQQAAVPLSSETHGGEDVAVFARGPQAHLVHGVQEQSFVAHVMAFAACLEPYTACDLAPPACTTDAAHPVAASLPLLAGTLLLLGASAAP
Chain of SUMO-activating enzyme (Q9UBE0 whole entry): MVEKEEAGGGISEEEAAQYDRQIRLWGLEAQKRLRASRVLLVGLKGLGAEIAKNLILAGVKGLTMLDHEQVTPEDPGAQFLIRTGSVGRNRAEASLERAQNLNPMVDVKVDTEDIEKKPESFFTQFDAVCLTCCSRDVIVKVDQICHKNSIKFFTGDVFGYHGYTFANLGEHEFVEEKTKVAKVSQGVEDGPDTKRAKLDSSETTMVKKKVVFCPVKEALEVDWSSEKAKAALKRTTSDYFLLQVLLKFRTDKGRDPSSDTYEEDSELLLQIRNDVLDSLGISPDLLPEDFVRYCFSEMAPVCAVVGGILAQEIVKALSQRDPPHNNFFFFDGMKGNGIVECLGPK
Chain of SUMO-activating enzyme (Q9UBT2 whole entry): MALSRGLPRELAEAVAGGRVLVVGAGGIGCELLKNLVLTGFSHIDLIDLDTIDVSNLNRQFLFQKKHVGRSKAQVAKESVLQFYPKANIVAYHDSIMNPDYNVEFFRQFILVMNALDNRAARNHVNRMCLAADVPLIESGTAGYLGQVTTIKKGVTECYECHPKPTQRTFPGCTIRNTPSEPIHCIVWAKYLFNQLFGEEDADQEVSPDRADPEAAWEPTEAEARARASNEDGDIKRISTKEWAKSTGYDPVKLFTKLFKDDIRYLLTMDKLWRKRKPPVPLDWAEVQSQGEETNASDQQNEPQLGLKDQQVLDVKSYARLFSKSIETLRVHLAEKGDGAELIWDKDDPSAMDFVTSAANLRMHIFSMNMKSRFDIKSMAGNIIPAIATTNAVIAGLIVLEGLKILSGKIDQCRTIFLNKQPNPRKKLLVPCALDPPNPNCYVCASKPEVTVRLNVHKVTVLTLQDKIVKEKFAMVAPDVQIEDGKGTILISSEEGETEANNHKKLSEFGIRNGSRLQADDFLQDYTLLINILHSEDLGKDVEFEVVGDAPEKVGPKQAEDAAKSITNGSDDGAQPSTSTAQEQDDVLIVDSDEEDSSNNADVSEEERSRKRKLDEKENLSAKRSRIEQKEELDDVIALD
Chain of G-protein coupled receptor 55 (Q9Y2T6 whole entry): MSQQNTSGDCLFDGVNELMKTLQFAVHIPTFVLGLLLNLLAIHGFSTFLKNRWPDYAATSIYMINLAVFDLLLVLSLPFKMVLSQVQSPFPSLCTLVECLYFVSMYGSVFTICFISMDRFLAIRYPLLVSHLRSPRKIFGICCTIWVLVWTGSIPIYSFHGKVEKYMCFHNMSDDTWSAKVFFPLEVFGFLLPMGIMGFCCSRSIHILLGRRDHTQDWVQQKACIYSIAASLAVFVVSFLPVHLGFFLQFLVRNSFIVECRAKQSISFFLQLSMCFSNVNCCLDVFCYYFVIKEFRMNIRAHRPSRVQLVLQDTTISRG

SMILES: Cc1cc(C)c(CSc2nnc(-c3ccccn3)n2Cc2ccco2)c(C)c1
EC50 (Mu-type opioid receptor): > 32 µM (inactive) | EC50 [9]: > 64 µM (inactive)

SMILES: CC(=O)C1=C(C)NC(SCC(=O)c2ccc(Cl)cc2Cl)=C(C#N)C1c1ccco1 (stereo not given)
EC50 [10]: 0.437 µM (active) | EC50 [11]: 15.7 µM (active) | EC50 [12]: > 49.8 µM (inactive) | EC50 [13]: > 49.8 µM (not active)

SMILES: CCCCCCCC(=O)Nc1ccc(C(=O)N/N=C/c2cccc([N+](=O)[O-])c2)cc1
AC50 (INS1): 4.85 µM (active) | EC50 [14]: 3.02 µM (active) | IC50 (SUMO-activating enzyme): 34.7 µM (active) | EC50 [15]: 2.55 µM (active)

SMILES: CCN1CCS/C1=C\C=C\C1=[N+](CC)CCS1
EC50 [10]: < 0.1 µM (active) | IC50 [16]: > 100 µM (inactive) | EC50 (cells): 0.028 µM (active) | EC50 [11]: > 60 µM (not active) | IC50 [17]: 1.35 µM (active)

SMILES: NNC(=O)c1cc2c(N3CCC(Cc4ccccc4)CC3)ncnc2s1
IC50 [18]: > 55.7 µM (inactive) | IC50 [19]: 13.7 µM (inactive)

SMILES: COc1ccc(-c2nc(Cn3c(SCc4ccccc4F)nc4ccncc43)c(C)o2)cc1
IC50 [20]: > 100 µM (inactive) | IC50 [21]: > 100 µM (not active)

Now from value to molecule:

IC50 [1]: > 32 µM (inactive) | EC50 (Cannabinoid receptor 2 [2]): 7.94 µM (active) | IC50 [3]: 5.85 µM (active) | IC50 (Cannabinoid receptor 2 [4]): > 32 µM (inactive) | IC50 (Cannabinoid receptor 1 [5]): > 32 µM (inactive) | EC50 [6]: > 32 µM (inactive) | EC50 (Cannabinoid receptor 1 [7]): > 32 µM (inactive)
SMILES: N=c1c(C(=O)NCc2cccnc2)cc2c(=O)n3ccccc3nc2n1C1CCCC1

EC50 [8]: > 100 µM (inactive)
SMILES: O=c1oc2cc(OCc3ccc([N+](=O)[O-])cc3)ccc2c2c1CCCC2

EC50 [22]: 20.4 µM (active) | EC50 [23]: 28.1 µM (active) | EC50 [24]: 14.9 µM (active)
SMILES: Cc1ccc(NC(=O)CCNS(=O)(=O)c2ccc3nc(O)oc3c2)c(Cl)c1
